Experimental data reported in paper PMC2831638 (Biochemistry, 2010).
Entries after “also recorded” stand apart in the source; their conditions may differ. Ends that are not written are not given here.

Legend:
[1] = Peptide solubility, filtration assay with AAA; type: physicochemical; settings: pH 7.4
[2] = system: Aβ42-induced toxicity in differentiated PC-12 cells; settings: cell-viability screen; cited from earlier work

For AEDVGSNKGA [Aβ(21–30)], the Max. solubility [1] was 129 ± 5 µM.
For IGLMVGGVVIA [Aβ(32–42)], the “toxicity of the peptide itself (in words)” value [2] is given as “slight toxicity”.
For VVIA [Aβ(39–42)], the “inhibition of Aβ42-induced toxicity (in words)” value [2] is listed as “strongest inhibitors”.
LMVGGVV [Aβ(34–40)] showed a Max. solubility [1] of 169 ± 13 µM.
In the case of KGAIIGLMVGGVVIA [Aβ(28–42)], the “toxicity of the peptide itself (in words)” value [2] is listed as “highly toxic itself; also recorded: higher toxicity than Aβ42 itself”.
